These results are taken from patent US6777237B2, “Bioconjugates and delivery of bioactive agents” (University of Utah Research Foundation, priority 1996, dated 2004).

One series relates to HCT-116 cell line. The series can be described thus: MTT cell viability assay, HCT-116 cell line. The following applies: for IC50: HCT-116. In kind it is cell-based, human. A general note: Tetrazolium assays rely on reduction of a dye to a coloured formazan, in cell work by metabolically active cells.
For a further series, the system named is HL-60 cell line. The series can be described thus: MTT cell viability assay, HL-60 cell line. In kind it is cell-based, human. Conditions: for IC50: HL-60.
The next series deals with B-16 cell line. As to the kind of experiment: MTT cell viability assay, B-16 cell line. In kind it is cell-based, mouse.
The test system of a further series is Meth-A cell line. The series can be described thus: MTT cell viability assay, Meth-A cell line. Format: cell-based, mouse.
Another series concerns RD-995 cell line. As to the kind of experiment: MTT cell viability assay, RD-995 cell line. In kind it is cell-based, mouse.
A short description of series [1]: Thermal stability of bioconjugates in media (UV-vis, then photolysis check). Format: physicochemical.
Series [2] in a line: Anaerobic continuous-wave photolysis of methylcob(III)alamin. In kind it is physicochemical. The following applies: 514 nm light from an Argon-ion laser. As for the experimental part: A protocol for a typical anaerobic continuous-wave photolysis of methylcob(III)alamin or CH3Cbl^III is as follows. An aqueous solution of 200 μM CH3Cbl^III and 50 mM K^+ Hepes pH 7.3 is placed in a 1 cm quartz cuvette. Samples that are to be photolyzed under anaerobic conditions are either subjected to repeated freeze-pump-thaw cycles, or purged with Ar for 40 minutes immediately prior to photolysis and sealed. Continuous-wave visible light irradiation is accomplished at the desired wavelength with an Ar^+ pumped dye laser. The incident light on the face of the cuvette is reduced to 12 mW cm^−2 with neutral density filters. The light flux is determined by potassium ferrioxalate actinomety and by a Scientech surface-reading thermopile. The cuvette is placed in a thermostated cell holder at 25-37° C. […] The magnetic field within the area of the cuvette is homogeneous to within 2% and the long term stability is better than 0.5% as monitored by a transverse Hall probe and digital teslameter.
Absorption spectra from 300-600 nm are recorded in one second with a diode array spectrophotometer at variable time intervals from 10 seconds to 2 minutes (depending upon the fluence of the photolyzing light source) for a total of 3 τ1/2. […] The concentration of CH3Cbl^III is determined using the measured absorbance at 350 or 520 nm by the method of Chen and Chance (1993). […]

Where [3] appears, read: Photolysis (10 min irradiation, 1 h after treatment).
Setting [4] is: Homo sapiens, unconjugated chlorambucil.
Where [5] appears, read: Mus musculus, unconjugated chlorambucil.

In general, IC50 refers to the point on the concentration scale where inhibition reaches its midpoint. Consider “2-[4-(4′-[bis-(2-chloroethyl)amino]phenyl)butyroxy]ethylcob(III)alamin [compound 3]”, for which the LD50 is 0.08 µM with HCT-116 cell line (HCT-116, FIG. 5, brief irradiation with red light 12 hours after dosing); 2 µM in the series with HCT-116 cell line (HCT-116, FIG. 5, photolysis with 10-fold excess of vitamin B12 added); 0.2 µM in the series with HL-60 cell line (HL-60, FIG. 6, bioconjugate, no photolysis). The toxicity result with HCT-116 cell line (HCT-116, FIG. 5, no photolysis, at concentrations approaching 100 μM) is reported as “no substantial toxicity”; with HL-60 cell line (HL-60, FIG. 6, with addition of 10 equivalents of vitamin B12, no photolysis) it was “absence of toxicity”. The IC50 in the series on HCT-116 cell line (setting [3]) turned out to be 1700 nM; in the series with HL-60 cell line (No Photolysis), 3200 nM; in the series on B-16 cell line (setting [3]), 600 nM; in the series with Meth-A cell line (No Photolysis), 210000 nM; in the series on Meth-A cell line (setting [3]) it was 200 nM; in the series on RD-995 cell line (setting [3]), 200 nM. Further, the “fold better than unconjugated chlorambucil standard (LD50)” value with HL-60 cell line (HL-60, FIG. 6, no photolysis) is “at least 2 fold”. For the same compound, in series [1], the thermal lability entry is reported as “thermal lability”.
As for “4-[4′-(bis-[2-chloroethyl]amino)phenyl]butyroylcob(III)alamin [compound 4]”, the concentration for half-maximal inhibition (IC50) with HCT-116 cell line (setting [3]) was 1100 nM; in the series with HL-60 cell line (No Photolysis), 8900 nM; with B-16 cell line (setting [3]), 300 nM; in the series with Meth-A cell line (No Photolysis) it was 84200 nM; with Meth-A cell line (setting [3]), 300 nM; in the series with RD-995 cell line (setting [3]), 300 nM. For the same compound, the thermal lability result in series [1] is on record as “thermal lability”.
As to `C/C1=C2/[N-][C@H]([C@H](CC(N)=O)[C@@]2(C)CCC(=O)NC[C@@H](C)OP(=O)([O-])O[C@H]2[C@@H](O)[C@@H](n3cnc4cc(C)c(C)cc43)O[C@@H]2CO)[C@]2(C)N=C(/C(C)=C3N=C(/C=C4N=C1[C@@H](CCC(N)=O)C\4(C)C)[C@@H](CCC(N)=O)[C@]\3(C)CC(N)=O)[C@@H](CCC(N)=O)[C@]2(C)CC(N)=O.[CH3-].[Co]` [CH3Cbl^III, methylcob(III)alamin], the photolysis quantum yield entry in series [2] is listed as “about 0.3”.
Consider `O=C(O)CCCc1ccc(N(CCCl)CCCl)cc1` [Chlorambucil, reference compound], for which the LD50 entry with HCT-116 cell line (HCT-116, FIG. 5, chlorambucil alone) is “about 2 μM”; with HL-60 cell line (HL-60, FIG. 6, unconjugated chlorambucil standard) it was 0.5 µM. Moreover, the IC50 in the series with HCT-116 cell line (setting [4]) worked out at 20800 nM; in the series on HL-60 cell line (setting [4]), 5800 nM; in the series with B-16 cell line (Mus musculus, B16, unconjugated chlorambucil), 1400 nM; in the series with Meth-A cell line (setting [5]), 1800 nM; in the series with RD-995 cell line (setting [5]), 1100 nM.
